In US20220119354A1, “DIAMINO-SUBSTITUTED PYRIDINES AND PYRIMIDINES AS HERBICIDES” (FMC Corporation, priority 2019, published 2022):

Key:
Format in all cases: in vivo
[1] = system: galium (catchweed bedstraw, Galium aparine); test: Test A postemergence, galium; conditions: 0 to 100 scale
Source text: (§1) Seeds of plant species selected from barnyardgrass (Echinochloa crus-galli), kochia (Kochia scoparia), ragweed (common ragweed, Ambrosia elatior), ryegrass, Italian (Lolium multiflorum), foxtail, giant (Setaria faberii), foxtail, green (Setaria viridis), and pigweed (Amaranthus retroflexus) were planted into a blend of loam soil and sand and treated preemergence with a directed soil spray using test chemicals formulated in a non-phytotoxic solvent mixture which included a surfactant.
(§2) At the same time, plants selected from these weed species and also wheat (Triticum aestivum), corn (Zea mays), blackgrass (Alopecurus myosuroides), and galium (catchweed bedstraw, Galium aparine) were planted in pots containing the same blend of loam soil and sand and treated with postemergence applications of test chemicals formulated in the same manner. Plants ranged in height from 2 to 10 cm and were in the one- to two-leaf stage for the postemergence treatment. Treated plants and untreated controls were maintained in a greenhouse for approximately 10 d, after which time all treated plants were compared to untreated controls and visually evaluated for injury. Plant response ratings, summarized in Table A, are based on a 0 to 100 scale where 0 is no effect and 100 is complete control. A dash (-) response means no test result.

[2] = system: pigweed (Amaranthus retroflexus); test: Test A preemergence, pigweed; conditions: 0 to 100 scale
Source text: as §1, §2

[3] = system: ragweed (common ragweed, Ambrosia elatior); test: Test A postemergence, ragweed; conditions: 0 to 100 scale
Source text: as §1, §2

[4] = system: foxtail, giant (Setaria faberii); test: Test A postemergence, giant foxtail; conditions: 0 to 100 scale
Source text: as §1, §2

[5] = system: foxtail, giant (Setaria faberii); test: Test A preemergence, giant foxtail; conditions: 0 to 100 scale
Source text: as §1, §2

[6] = system: ryegrass, Italian (Lolium multiflorum); test: Test A postemergence, Italian ryegrass; conditions: 0 to 100 scale
Source text: as §1, §2

[7] = system: ryegrass, Italian (Lolium multiflorum); test: Test A preemergence, Italian ryegrass; conditions: 0 to 100 scale
Source text: as §1, §2

[8] = system: ducksalad (Heteranthera limosa); test: Test B flooded paddy test, ducksalad; conditions: Flood, 250 g ai/ha, applied to paddy water, 2-leaf stage, visual evaluation after 13 to 15 d
Method: (§3) Plant species in the flooded paddy test selected from rice (Oryza sativa), sedge, umbrella (small-flower umbrella sedge, Cyperus difformis), ducksalad (Heteranthera limosa), and barnyardgrass (Echinochloa crus-galli) were grown to the 2-leaf stage for testing. At the time of treatment, test pots were flooded to 3 cm above the soil surface, treated by application of test compounds directly to the paddy water, and then maintained at that water depth for the duration of the test. Treated plants and controls were maintained in a greenhouse for 13 to 15 d, after which time all species were compared to controls and visually evaluated. Plant response ratings, summarized in Table B, are based on a scale of 0 to 100 where 0 is no effect and 100 is complete control. A dash (-) response means no test result.

[9] = system: barnyardgrass (Echinochloa crus-galli); test: Test A preemergence, barnyardgrass; conditions: 0 to 100 scale
Source text: as §1, §2

[10] = system: barnyardgrass (Echinochloa crus-galli); test: Test B flooded paddy test, barnyardgrass; conditions: Flood, 250 g ai/ha, applied to paddy water, 2-leaf stage, visual evaluation after 13 to 15 d
Method: as §3

[11] = system: rice (Oryza sativa); test: Test B flooded paddy test, rice; conditions: Flood, 250 g ai/ha, applied to paddy water, 2-leaf stage, visual evaluation after 13 to 15 d
Method: as §3

[12] = system: corn (Zea mays); test: Test A postemergence, corn; conditions: 0 to 100 scale
Source text: as §1, §2

[13] = system: kochia (Kochia scoparia); test: Test A postemergence, kochia; conditions: 0 to 100 scale
Source text: as §1, §2

[14] = system: barnyardgrass (Echinochloa crus-galli); test: Test A postemergence, barnyardgrass; conditions: 0 to 100 scale
Source text: as §1, §2

[15] = system: pigweed (Amaranthus retroflexus); test: Test A postemergence, pigweed; conditions: 0 to 100 scale
Source text: as §1, §2

[16] = system: kochia (Kochia scoparia); test: Test A preemergence, kochia; conditions: 0 to 100 scale
Source text: as §1, §2

[17] = system: sedge, umbrella (small-flower umbrella sedge, Cyperus difformis); test: Test B flooded paddy test, umbrella sedge; conditions: Flood, 250 g ai/ha, applied to paddy water, 2-leaf stage, visual evaluation after 13 to 15 d
Method: as §3

[18] = system: blackgrass (Alopecurus myosuroides); test: Test A postemergence, blackgrass; conditions: 0 to 100 scale
Source text: as §1, §2

[19] = system: wheat (Triticum aestivum); test: Test A postemergence, wheat; conditions: 0 to 100 scale
Source text: as §1, §2

Row | Compound | Plant response rating, Galium ([1]; 125 g ai/ha) | Plant response rating, Galium ([1]; 500 g ai/ha) | Plant response rating, Pigweed ([2]; 125 g ai/ha) | Plant response rating, Pigweed ([2]; 500 g ai/ha) | Plant response rating, Ragweed ([3]; 125 g ai/ha) | Plant response rating, Ragweed ([3]; 500 g ai/ha) | Plant response rating, Foxtail, Giant ([4]; 125 g ai/ha) | Plant response rating, Foxtail, Giant ([4]; 500 g ai/ha) | Plant response rating, Foxtail, Giant ([5]; 125 g ai/ha) | Plant response rating, Foxtail, Giant ([5]; 500 g ai/ha) | Plant response rating, Ryegrass, Italian ([6]; 125 g ai/ha) | Plant response rating, Ryegrass, Italian ([6]; 500 g ai/ha) | Plant response rating, Ryegrass, Italian ([7]; 125 g ai/ha) | Plant response rating, Ryegrass, Italian ([7]; 500 g ai/ha) | Plant response rating, Ducksalad (0 to 100 scale, 0 is no effect, 100 is complete control) [8] | Plant response rating, Barnyardgrass ([9]; 125 g ai/ha) | Plant response rating, Barnyardgrass ([9]; 500 g ai/ha) | Plant response rating, Barnyardgrass (0 to 100 scale, 0 is no effect, 100 is complete control) [10] | Plant response rating, Rice (0 to 100 scale, 0 is no effect, 100 is complete control) [11] | Plant response rating, Corn ([12]; 125 g ai/ha) | also measured
1 | C[C@@H](Nc1ncc(C(F)(F)F)c(N)n1)c1cc2cc(F)c(F)cc2o1 [Compounds 30] | 50 | 60 | 40 | 100 | 20 | 80 | 0 | 30 | 0 | 70 | 0 | 0 | 0 | 0 | 0 | 0 | 80 | 0 | 0 | 10 | Plant response rating, Corn ([12]; 500 g ai/ha): 0; Plant response rating, Kochia ([13]; 125 g ai/ha): 20; Plant response rating, Kochia ([13]; 500 g ai/ha): 80; Plant response rating, Barnyardgrass ([14]; 125 g ai/ha): 0; Plant response rating, Barnyardgrass ([14]; 500 g ai/ha): 30; Plant response rating, Pigweed ([15]; 125 g ai/ha): 100; Plant response rating, Pigweed ([15]; 500 g ai/ha): 100; Plant response rating, Kochia ([16]; 125 g ai/ha): 0; Plant response rating, Kochia ([16]; 500 g ai/ha): 30; Plant response rating, Sedge, Umbrella (0 to 100 scale, 0 is no effect, 100 is complete control) [17]: 80; Plant response rating, Blackgrass ([18]; 125 g ai/ha): 0; Plant response rating, Blackgrass ([18]; 500 g ai/ha): 0; Plant response rating, Wheat ([19]; 125 g ai/ha): 0; Plant response rating, Wheat ([19]; 500 g ai/ha): 0
2 | Cc1cc2oc([C@@H](C)Nc3ncc(C(F)(F)F)c(N)n3)cc2cc1F [Compound 31] | 70 | 100 | 90 | 100 | 60 | 90 | 10 | 70 | 90 | 100 | 30 | 10 | 20 | 80 | 0 | 70 | 100 | 0 | 0 | 0 | Plant response rating, Corn ([12]; 500 g ai/ha): 30; Plant response rating, Kochia ([13]; 125 g ai/ha): 60; Plant response rating, Kochia ([13]; 500 g ai/ha): 90; Plant response rating, Barnyardgrass ([14]; 125 g ai/ha): 20; Plant response rating, Barnyardgrass ([14]; 500 g ai/ha): 80; Plant response rating, Pigweed ([15]; 125 g ai/ha): 90; Plant response rating, Pigweed ([15]; 500 g ai/ha): 100; Plant response rating, Kochia ([16]; 125 g ai/ha): 40; Plant response rating, Kochia ([16]; 500 g ai/ha): 90; Plant response rating, Sedge, Umbrella (0 to 100 scale, 0 is no effect, 100 is complete control) [17]: 0; Plant response rating, Blackgrass ([18]; 125 g ai/ha): 20; Plant response rating, Blackgrass ([18]; 500 g ai/ha): 10; Plant response rating, Wheat ([19]; 125 g ai/ha): 0; Plant response rating, Wheat ([19]; 500 g ai/ha): 0
